Measurements: patent publication US20260285860A1, “INHIBITORS OF cGAS AND USES THEREOF” (The Trustees of Columbia University in the City of New York, priority 2023, published 2026)

Key:
HCC44 = assay: Treatment of HCC44 with cGAS inhibitor, STING signaling in response to cGAMP stimulation; type: cell-based, human; conditions: HCC44 cells
Excerpt: Suppression of CIN or cGAS activity restores immunogenic potential of LKB1-deficient NSCLC. In experiments, relief of tonic STING activation via cGAMP could be removed by genetically deleting cGAS. Treatment of HCC44 with a commercially available human-selective cGAS inhibitor (G150) restored STING protein levels and enhanced pTBK1 and pIRF3 in response to cGAMP stimulation, thus, phenocopying genetic cGAS deletion experiments.

macrophages = assay: Macrophage polarization assays with conditioned media from MSA-2-treated cancer cells; type: cell-based
Procedure: (§1) Given mounting evidence on reprograming of macrophages by STING agonists, macrophage polarization assays were carried out. […] Finally, KL, 4T1, and EO771.1mb were inoculated subcutaneously (KL) or orthotopically (4T1 and EO771.1mb) to evaluate the efficacy of RU.521 and MSA-2 combination treatment. Animals were pre-treated with RU.521 to ensure sufficient drug exposure by the time the first MSA-2 dose was administrated and continued RU.521 throughout the treatment course. Animals were treated with MSA-2 when tumors reached ~100 mm3.

[1] = test system: KL, 4T1, and EO771.1mb tumors; assay: RU.521 and MSA-2 combination treatment of KL, 4T1 and EO771.1mb tumors in animals; type: in vivo; conditions: KL (subcutaneous), 4T1 and EO771.1mb (orthotopic); agent alone
Procedure: as §1

[2] = test system: KL, 4T1, CT26, B16F10 and E0771.1mb tumors; assay: MSA-2 treatment of transplanted wild type or Cgas KO tumors; type: in vivo
Excerpt: To test if loss of tumor cell cGAS activity would sensitize otherwise resistant chromosomally unstable tumors to STING agonists, wild type or Cgas KO cells […] biweekly with MSA-2.

[3] = Cgas KO tumors, KL, 4T1, CT26, B16F10, MSA-2 biweekly

SMILES	STING protein levels (HCC44)	pIRF3 in response to cGAMP stimulation (HCC44; cGAMP stimulation)	pTBK1 in response to cGAMP stimulation (HCC44; cGAMP stimulation)	Arginase 1 (M2-like marker) in macrophages (macrophages; conditioned media from KL, 4T1, CT26 and B16F10 cells treated with MSA-2, with inhibition of cGAS in cancer cells)	iNOS (M1-like marker) in macrophages (macrophages; conditioned media from MSA-2-treated Cgas KO cells versus wildtype MSA-2-treated cancer cells)	tumor growth, single agent [1]	survival of treated animals [2, 3]	tumor growth [2, 3]	survival of animals ([2]; E0771.1mb Cgas KO tumors)	tumor growth ([2]; E0771.1mb tumors, both cGAS proficient and deficient)	tumor growth and survival benefit ([2]; wildtype tumors)
Nc1ccc(-c2cc(Cl)c(Cl)c3[nH]c4c(c23)CN(C(=O)CO)CC4)cn1 [G150]	restored	enhanced	enhanced								
COc1cc2cc(C(=O)CCC(=O)O)sc2cc1OC [MSA-2]				reductions of Arginase 1	robust increase in iNOS	did not significantly hinder tumor growth	extending the survival	significantly slowed the growth	prolonged survival	grew slightly slower	comparatively minimal effect
